Data on 20 compounds can be found in US20240115557A1, “INHIBITORS OF RNA-GUIDED NUCLEASES AND USES THEREOF” (The Brigham and Women's Hospital, Inc., priority 2022, published 2024).

This assay addresses SpCas9 (Streptococcus pyogenes serotype M1, UniProt Q99ZW2). As to the kind of experiment: eGFP disruption assay, SpCas9, U2OS.eGFP.PEST cells. Format: cell-based. The following applies: for Normalized Z rep1 / Z score Rep1: replicate 1; for SpCas9 eGFP disruption Rep1: replicate 1, raw readout; for Normalized Z rep2 / Z socre Rep2: replicate 2; for SpCas9 eGFP disruption Rep2: replicate 2, raw readout. The text has this:
In some embodiments, the secondary assay may be an EGFP disruption assay. In such assay, a quantitative human cell-based reporter assay that enables rapid quantitation of targeted nuclease activities is used to characterize off-target cleavage of Cas9-based RNA guided endonucleases. In this assay, the activities of nucleases targeted to a single integrated EGFP reporter gene can be quantified by assessing loss of fluorescence signal in human U2OS.EGFP cells caused by inactivating frameshift insertion/deletion (indel) mutations introduced by error prone non-homologous end-joining (NHEJ) repair of nuclease-induced double-stranded breaks (DSBs).
In one protocol, U2OS.EGFP cells harboring a single integrated copy of an EGFP-PEST fusion gene are cultured (see e.g., Reyon et al., Nat Biotech 30, 460-465 (2012), which is herein incorporated by reference in its entirety). For transfections, 200,000 cells are Nucleofected with gRNA expression plasmid and pJDS246 together with 30 ng of a Td-tomato-encoding plasmid using the SE Cell Line 4D-Nucleofector™ X Kit (Lonza) according to the manufacturer's protocol. Cells are analyzed 2 days post-transfection using a BD LSRII flow cytometer. Transfections for optimizing gRNA/Cas9 plasmid concentration are performed in triplicate and all other transfections are performed in duplicate. PCR amplification is used for sequence verification of endogenous human genomic sites. PCR reactions are performed using Phusion Hot Start II high-fidelity DNA polymerase (NEB). Loci are amplified using touchdown PCR (98° C., 10 s; 72-62° C., −1° C./cycle, 15s; 72° C., 30 s] 10 cycles, [98° C., 10s; 62° C., 15s; 72° C., 30 s] 25 cycles). Alternatively, PCR for other targets is performed with 35 cycles at a constant annealing temperature of 68° C. or 72° C., and 3% DMSO or IM betaine, if necessary. PCR products are analyzed on a QIAXCEL capillary electrophoresis system to verify both size and purity. Validated products are treated with ExoSap-IT (Affymetrix) and sequenced by the Sanger method (MGH DNA Sequencing Core) to verify each target site.
Primary and secondary screening. The primary screen assayed a selection of unique chemical scaffolds derived from commercially available compounds and known bioactive molecular libraries (Table 7). Auto-fluorescent compounds were removed by a counter screen. Overall, the CAA was used to assay 122,409 small molecules with over 2,500 unique chemical scaffolds (FIG. 64F, Table 7). Of these compounds, 547 were selected as hits (Z score >3 in both replicates) for testing in orthogonal cell-based secondary assays. Hits were tested in duplicate in an eGFP disruption assay, wherein U2OS.eGFP.PEST cells^33 transfected with SpCas9 plasmid and eGFP-targeting gRNA plasmid were incubated with 20 μM of the compounds. In this assay, any compound that inhibited SpCas9 would rescue the loss of eGFP fluorescence. Here, toxic and auto-fluorescent compounds with a high GFP signal in cells were removed as false positives. […] Next, Applicants tested the 15 compounds in a luminescence-based gain-of-signal HiBiT knock-in assay, which involves SpCas9-mediated homology-directed tagging of GAPDH with a short peptide that luminesces upon complementation with a subunit derived from nanoluciferase.^34 Complementarily, the eGFP-disruption assay is fluorescence-based and involves error-prone DNA repair. As a counter-screen to remove false positives caused by cell death (viability <80%), the cell viability was measured after incubation.
For SAR studies and dose-response studies, 300,000 U2OS.eGFP.PEST cells were nucleofected with 300 ng of SpCas9 plasmid (Addgene #43861) and 30 ng of eGFP-targeting gRNA plasmid (Addgene #47511)^33 using SE Cell Line 4D-Nucleofector X Kit (Lonza) following the pulse program of DN-100. For RNP-based genome editing, 10 pmol of SpCas9 (GenScript #Z03385) and 12 pmol of gRNA were mixed and incubated for 5 min. […]

SMILES strings stand for the structures.

Chain of SpCas9 (Q99ZW2 whole entry): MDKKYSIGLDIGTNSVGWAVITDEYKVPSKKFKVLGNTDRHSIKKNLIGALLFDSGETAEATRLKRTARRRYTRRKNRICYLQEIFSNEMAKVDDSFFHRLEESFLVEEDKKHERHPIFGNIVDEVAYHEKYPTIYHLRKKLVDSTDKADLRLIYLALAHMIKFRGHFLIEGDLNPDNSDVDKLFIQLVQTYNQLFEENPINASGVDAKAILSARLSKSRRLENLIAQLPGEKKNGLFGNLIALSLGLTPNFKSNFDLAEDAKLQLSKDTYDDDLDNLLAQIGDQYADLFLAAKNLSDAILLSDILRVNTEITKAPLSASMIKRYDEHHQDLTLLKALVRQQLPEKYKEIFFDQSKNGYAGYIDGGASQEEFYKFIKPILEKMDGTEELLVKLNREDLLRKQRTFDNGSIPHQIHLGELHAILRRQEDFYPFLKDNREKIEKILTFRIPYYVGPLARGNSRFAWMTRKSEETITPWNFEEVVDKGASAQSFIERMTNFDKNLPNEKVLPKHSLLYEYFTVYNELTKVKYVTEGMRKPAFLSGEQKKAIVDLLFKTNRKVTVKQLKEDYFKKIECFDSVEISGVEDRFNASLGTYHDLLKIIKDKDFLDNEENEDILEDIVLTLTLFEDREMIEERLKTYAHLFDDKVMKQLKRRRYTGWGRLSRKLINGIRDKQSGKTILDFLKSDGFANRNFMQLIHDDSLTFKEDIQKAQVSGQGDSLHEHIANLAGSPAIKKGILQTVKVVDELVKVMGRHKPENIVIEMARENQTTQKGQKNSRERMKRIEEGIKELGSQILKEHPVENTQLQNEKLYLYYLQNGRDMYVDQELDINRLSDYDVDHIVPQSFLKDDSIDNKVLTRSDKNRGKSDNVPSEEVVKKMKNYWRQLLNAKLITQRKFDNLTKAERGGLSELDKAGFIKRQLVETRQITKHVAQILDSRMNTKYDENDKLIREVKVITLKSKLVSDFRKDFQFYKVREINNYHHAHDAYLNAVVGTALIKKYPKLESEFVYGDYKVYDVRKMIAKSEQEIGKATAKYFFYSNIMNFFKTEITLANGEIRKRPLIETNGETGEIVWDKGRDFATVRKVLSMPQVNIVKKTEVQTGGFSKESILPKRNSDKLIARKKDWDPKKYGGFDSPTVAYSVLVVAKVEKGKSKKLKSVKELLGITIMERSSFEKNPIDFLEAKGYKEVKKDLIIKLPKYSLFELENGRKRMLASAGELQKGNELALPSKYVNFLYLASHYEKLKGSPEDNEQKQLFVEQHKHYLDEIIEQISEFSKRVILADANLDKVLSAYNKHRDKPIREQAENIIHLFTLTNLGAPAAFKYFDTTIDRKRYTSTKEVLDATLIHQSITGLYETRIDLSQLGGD

As to `Fc1ccc(-c2nn3c(-c4ccncc4)nnc3s2)cc1Br` [Compound D727-0883], the “Normalized Z rep1” value was −0.13, the “Z score Rep1” value is −0.93, the “SpCas9 eGFP disruption Rep1” value was 63.924 and the “Normalized Z rep2” value was −0.09. Further, the “Z socre Rep2” value is −0.88 and the “SpCas9 eGFP disruption Rep2” value worked out at 60.422.

As to `COc1ccc(Cc2nnc3sc(-c4ccccc4OC)nn23)cc1` [Compound D727-0159], the “Normalized Z rep1” value is −0.57, the “Z score Rep1” value is −4.09, the “SpCas9 eGFP disruption Rep1” value is 53.496 and the “Normalized Z rep2” value was −0.23. For the same compound, the “Z socre Rep2” value is −2.11 and the “SpCas9 eGFP disruption Rep2” value is 56.714.

For the compound `Brc1cccc(-c2nn3c(-c4ccccn4)nnc3s2)c1` [Compound D727-0489], the “Normalized Z rep1” value is −0.24, the “Z score Rep1” value is −1.76, the “SpCas9 eGFP disruption Rep1” value is listed as 61.183 and the “Normalized Z rep2” value is given as −0.06. Also, the “Z socre Rep2” value is given as −0.58 and the “SpCas9 eGFP disruption Rep2” value stood at 61.347.

For the compound `O=C(NCC1CCCO1)c1sc(=S)n2c1[nH]c(=O)c1cc3c(cc12)OCO3` (stereo not drawn) [Compound F083-0416], the “Normalized Z rep1” value is on record as −0.32, the “Z score Rep1” value was −2.28, the “SpCas9 eGFP disruption Rep1” value was 59.472 and the “Normalized Z rep2” value was −0.05. Moreover, the “Z socre Rep2” value is −0.49 and the “SpCas9 eGFP disruption Rep2” value is 61.595.

For `Cc1cccc(C(=O)Nc2ccccc2Sc2cc(C)nc3ncnn23)c1` [Compound F518-0014], the “Normalized Z rep1” value was −0.36, the “Z score Rep1” value was −3.28, the “SpCas9 eGFP disruption Rep1” value is listed as 55.407 and the “Normalized Z rep2” value is listed as −0.34. Further, the “Z socre Rep2” value is −5.07 and the “SpCas9 eGFP disruption Rep2” value is recorded as 57.92.

As for `NC(=O)c1sc(=S)n2c1[nH]c(=O)c1cc(Cl)ccc12` [Compound F083-0005], the “Normalized Z rep1” value is −0.23, the “Z score Rep1” value is listed as −1.66, the “SpCas9 eGFP disruption Rep1” value is given as 61.541 and the “Normalized Z rep2” value was −0.12. Besides, the “Z socre Rep2” value is on record as −1.09 and the “SpCas9 eGFP disruption Rep2” value turned out to be 59.801.

In the case of `Cc1nn(-c2ccccc2)c(C)c1CCc1nn2c(-c3cnccn3)nnc2s1` [Compound D727-0838], the “Normalized Z rep1” value is reported as −0.12, the “Z score Rep1” value is −0.86, the “SpCas9 eGFP disruption Rep1” value was determined as 64.17 and the “Normalized Z rep2” value is listed as −0.21. In addition, the “Z socre Rep2” value is on record as −1.92 and the “SpCas9 eGFP disruption Rep2” value stood at 57.281.

For the compound `N#Cc1[nH]c(=O)n(Cc2ccccc2)c1N` [Cpd10], the “Normalized Z rep1” value worked out at 0.00, the “Z score Rep1” value is 0.06, the “SpCas9 eGFP disruption Rep1” value was 58.004 and the “Normalized Z rep2” value was found to be 0.14. In addition, the “Z socre Rep2” value was found to be 2.94 and the “SpCas9 eGFP disruption Rep2” value was found to be 60.748.

As for `CCCCNC(=O)CN1CCN(c2ccc(C(=O)O)cc2NC(=O)c2ccccc2Cl)CC1` [Compound F086-0029], the “Normalized Z rep1” value is recorded as −0.30, the “Z score Rep1” value was −2.20, the “SpCas9 eGFP disruption Rep1” value came out at 59.751 and the “Normalized Z rep2” value was −0.05. Further, the “Z socre Rep2” value is −0.46 and the “SpCas9 eGFP disruption Rep2” value is on record as 61.703.

As for `Cc1nn(-c2ccccc2)c(C)c1CCc1nn2c(-c3cccc(F)c3)nnc2s1` [Compound D727-0828], the “Normalized Z rep1” value is on record as −0.36, the “Z score Rep1” value is on record as −2.61, the “SpCas9 eGFP disruption Rep1” value was determined as 58.376 and the “Normalized Z rep2” value is −0.14. Besides, the “Z socre Rep2” value is recorded as −1.34 and the “SpCas9 eGFP disruption Rep2” value worked out at 59.045.

Regarding `Cc1nc2ccccc2n1Cc1nnc2sc(-c3cccnc3)nn12` [Compound D727-0182], the “Normalized Z rep1” value is −0.45, the “Z score Rep1” value is recorded as −3.22, the “SpCas9 eGFP disruption Rep1” value stood at 56.36 and the “Normalized Z rep2” value is 0.14. The “Z socre Rep2” value is 1.30 and the “SpCas9 eGFP disruption Rep2” value is recorded as 67.01.

Consider `O=C(O)c1cc(N2CCCC2)ccc1NC(=O)C1CCCC1` [Compound F685-1588], for which the “Normalized Z rep1” value is on record as −0.26, the “Z score Rep1” value is −2.44, the “SpCas9 eGFP disruption Rep1” value was 57.803 and the “Normalized Z rep2” value is −0.23. The “Z socre Rep2” value was −3.36 and the “SpCas9 eGFP disruption Rep2” value was determined as 60.73.

On to `COc1ccc(-c2nnc3sc(-c4cccnc4)nn23)cc1OC` [Compound D727-0025], for which the “Normalized Z rep1” value was −0.28, the “Z score Rep1” value is −2.04, the “SpCas9 eGFP disruption Rep1” value is recorded as 60.269 and the “Normalized Z rep2” value was −0.11. For the same compound, the “Z socre Rep2” value is on record as −1.05 and the “SpCas9 eGFP disruption Rep2” value is recorded as 59.908.

Turning to `Fc1cccc(-c2nn3c(-c4ccc5ccccc5n4)nnc3s2)c1` [D727-0740], the “Normalized Z rep1” value is −0.57, the “Z score Rep1” value was −4.14, the “SpCas9 eGFP disruption Rep1” value is listed as 53.347 and the “Normalized Z rep2” value is recorded as −0.08. Also, the “Z socre Rep2” value is given as −0.74 and the “SpCas9 eGFP disruption Rep2” value turned out to be 60.86.

Take `COc1ccc(S(=O)(=O)CCC(=O)Nc2nc(-c3ccncc3)cs2)cc1` [Cpd4]: the “Normalized Z rep1” value is recorded as −0.26, the “Z score Rep1” value is −3.70, the “SpCas9 eGFP disruption Rep1” value turned out to be 48.322 and the “Normalized Z rep2” value is given as −0.20. In addition, the “Z socre Rep2” value was −4.05 and the “SpCas9 eGFP disruption Rep2” value amounted to 47.796.

Regarding `Cc1cc(Sc2ccccc2NC(=O)c2cccc(F)c2)n2ncnc2n1` [Compound F518-0008], the “Normalized Z rep1” value is −0.22, the “Z score Rep1” value is reported as −2.00, the “SpCas9 eGFP disruption Rep1” value amounted to 59.029 and the “Normalized Z rep2” value is on record as −0.20. Besides, the “Z socre Rep2” value is listed as −3.02 and the “SpCas9 eGFP disruption Rep2” value amounted to 61.293.

For the compound `CN(C)c1ccc(-c2nn3c(-c4ccc5ccccc5n4)nnc3s2)cc1` [Compound D727-0755], the “Normalized Z rep1” value is −0.11, the “Z score Rep1” value is listed as −0.83, the “SpCas9 eGFP disruption Rep1” value is given as 64.271 and the “Normalized Z rep2” value is recorded as −0.09. Also, the “Z socre Rep2” value is reported as −0.79 and the “SpCas9 eGFP disruption Rep2” value was 60.694.

As to `CCC(=O)Nc1ccccc1Sc1cc(C)nc2ncnn12` [Compound F518-0049], the “Normalized Z rep1” value was −0.09, the “Z score Rep1” value was −0.86, the “SpCas9 eGFP disruption Rep1” value was determined as 62.276 and the “Normalized Z rep2” value is listed as −0.23. Further, the “Z socre Rep2” value was −3.42 and the “SpCas9 eGFP disruption Rep2” value came to 60.623.

Regarding `Fc1cccc(-c2nnc3sc(-c4ccc5ccccc5n4)nn23)c1` [Compound D727-0892], the “Normalized Z rep1” value is given as −0.28, the “Z score Rep1” value was −2.03, the “SpCas9 eGFP disruption Rep1” value was 60.296 and the “Normalized Z rep2” value is recorded as −0.34. Moreover, the “Z socre Rep2” value was −3.13 and the “SpCas9 eGFP disruption Rep2” value is reported as 53.657.

Take `CCCCN(CC)C(=O)C1CCCN(c2ccc(-c3ccccc3C)nn2)C1` (stereo not drawn) [Compound F305-0129]: the “Normalized Z rep1” value is on record as −0.32, the “Z score Rep1” value is given as −2.35, the “SpCas9 eGFP disruption Rep1” value is reported as 59.262 and the “Normalized Z rep2” value is reported as −0.38. For the same compound, the “Z socre Rep2” value is recorded as −3.50 and the “SpCas9 eGFP disruption Rep2” value stood at 52.541.
